Reference: patent US20210115018A1, “PIPERIDINE COMPOUNDS AS COVALENT MENIN INHIBITORS” (THE REGENTS OF THE UNIVERSITY OF MICHIGAN, priority 2018, published 2021)

Each compound was assayed against T1, menin protein (Homo sapiens, UniProt O00255) (assay: Fluorescence polarization (FP) competitive binding assay, menin binding affinity). Conditions: FP competition with FAM-MM2 probe 2 nM, menin 4 nM, 30 minutes room temperature.
T1 sequence (O00255 1-610): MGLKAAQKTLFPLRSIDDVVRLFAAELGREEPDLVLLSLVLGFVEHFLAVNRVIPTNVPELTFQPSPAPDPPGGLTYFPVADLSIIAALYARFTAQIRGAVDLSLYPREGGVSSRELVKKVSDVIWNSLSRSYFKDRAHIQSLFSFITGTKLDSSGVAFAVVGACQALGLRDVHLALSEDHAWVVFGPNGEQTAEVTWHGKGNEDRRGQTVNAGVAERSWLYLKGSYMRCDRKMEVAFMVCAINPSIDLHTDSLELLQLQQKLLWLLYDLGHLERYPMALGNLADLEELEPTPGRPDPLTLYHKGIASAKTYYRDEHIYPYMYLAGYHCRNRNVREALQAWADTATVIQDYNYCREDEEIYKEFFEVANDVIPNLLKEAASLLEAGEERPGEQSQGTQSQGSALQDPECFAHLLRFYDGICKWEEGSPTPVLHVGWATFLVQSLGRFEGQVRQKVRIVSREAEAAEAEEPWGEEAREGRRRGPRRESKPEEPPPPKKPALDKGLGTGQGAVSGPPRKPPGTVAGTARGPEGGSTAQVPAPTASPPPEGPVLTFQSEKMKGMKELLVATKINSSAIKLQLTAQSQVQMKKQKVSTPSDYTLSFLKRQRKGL
Procedure: A fluorescence polarization (FP) competitive binding assay was used to determine the binding affinities of representative menin inhibitors. A FAM labeled fluorescent probe was designed and synthesized based on a MLL1 peptide (FAM-MM2). Equilibrium dissociation constant (Kd) value of FAM-MM2 to menin protein was determined from protein saturation experiments by monitoring the total fluorescence polarization of mixtures composed with the fluorescent probe at a fixed concentration and the protein with increasing concentrations up to full saturation. Serial dilutions of the protein were mixed with FAM-MM2 to a final volume of 200 μl in the assay buffer (PBS with 0.02% Bovine γ-Globulin and 4% DMSO. 0.01% Triton X-100 was added right before assays). Final FAM-MM2 concentration was 2 nM. Plates were incubated at room temperature for 30 minutes with gentle shaking to assure equilibrium. FP values in millipolarization units (mP) were measured using the Infinite M-1000 plate reader (Tecan U.S., Research Triangle Park, N.C.) in Microfluor 1 96-well, black, v-bottom plates (Thermo Scientific, Waltham, Mass.) at an excitation wavelength of 485 nm and an emission wavelength of 530 nm.
The IC50 of representative Compounds of the Disclosure, see Table 3, were determined in a competitive binding experiment. Mixtures of 5 μl of the tested compounds in DMSO and 195 μl of preincubated protein/probe complex solution in the assay buffer were added into assay plates which were incubated at room temperature for 30 minutes with gentle shaking. Final concentration of the menin protein was 4 nM, and final probe concentration is 2 nM. Negative controls containing protein/probe complex only (equivalent to 0% inhibition), and positive controls containing only free probes (equivalent to 100% inhibition), were included in each assay plate. FP values were measured as described above. IC50 values were determined by nonlinear regression fitting of the competition curves.

| IC50 [nM] | Compound |
| --- | --- |
| 2 | C=CC(=O)N1CC(S(=O)(=O)c2ccc(N3CC(CN4CCC([C@@](CN(C)C)(c5cccc(F)c5)[C@H]5CCC[C@@H]5NC(=O)OC)CC4)C3)cc2)C1 [Cpd. No. 1, methyl ((1S,2R)-2-((S)-1-(1-((1-(4-((1-acryloylazetidin-3-yl)sulfonyl)phenyl)azetidin-3-yl)methyl)piperidin-4-yl)-2-(dimethylamino)-1-(3-fluorophenyl)ethyl)cyclopentyl)carbamate] |
| 2 | COC(=O)N[C@H]1CCC[C@@H]1[C@](CN1CCCCC1)(c1cccc(F)c1)C1CCN(CC2CN(c3ccc(S(=O)(=O)C4CN(C(=O)/C=C/CN(C)C)C4)cc3)C2)CC1 [Cpd. No. 4, methyl ((1S,2R)-2-((S)-1-(1-((1-(4-((1-((E)-4-(dimethylamino)but-2-enoyl)azetidin-3-yl)sulfonyl)phenyl)azetidin-3-yl)methyl)piperidin-4-yl)-1-(3-fluorophenyl)-2-(piperidin-1-yl)ethyl)cyclopentyl)carbamate] |
| 2 | COC(=O)N[C@H]1CCC[C@@H]1[C@](CN1CCOCC1)(c1cccc(F)c1)C1CCN(CC2CN(c3ccc(S(=O)(=O)C4CN(C(=O)/C=C/CN(C)C)C4)cc3)C2)CC1 [Cpd. No. 6, methyl ((1S,2R)-2-((S)-1-(1-((1-(4-((1-((E)-4-(dimethylamino)but-2-enoyl)azetidin-3-yl)sulfonyl)phenyl)azetidin-3-yl)methyl)piperidin-4-yl)-1-(3-fluorophenyl)-2-morpholinoethyl)cyclopentyl)carbamate] |
| 2 | COC(=O)N[C@H]1CCC[C@@H]1[C@](CN1CCC(C)(O)CC1)(c1cccc(F)c1)C1CCN(CC2CN(c3ccc(S(=O)(=O)C4CN(C(=O)/C=C/CN(C)C)C4)cc3)C2)CC1 [Cpd. No. 8, methyl ((1S,2R)-2-((S)-1-(1-((1-(4-((1-((E)-4-(dimethylamino)but-2-enoyl)azetidin-3-yl)sulfonyl)phenyl)azetidin-3-yl)methyl)piperidin-4-yl)-1-(3-fluorophenyl)-2-(4-hydroxy-4-methylpiperidin-1-yl)ethyl)cyclopentyl)carbamate] |
| 3 | C=C(CN(C)C)C(=O)N1CC(S(=O)(=O)c2ccc(N3CC(CN4CCC([C@@](CN5CCC5)(c5cccc(F)c5)[C@H]5CCC[C@@H]5NC(=O)OC)CC4)C3)cc2)C1 [Cpd. No. 10, methyl ((1S,2R)-2-((S)-2-(azetidin-1-yl)-1-(1-((1-(4-((1-(2-((dimethylamino)methyl)acryloyl)azetidin-3-yl)sulfonyl)phenyl)azetidin-3-yl)methyl)piperidin-4-yl)-1-(3-fluorophenyl)ethyl)cyclopentyl)carbamate] |
| 2 | COC(=O)N[C@H]1CCC[C@@H]1[C@](CN1CCC1)(c1cc(F)cc(F)c1)C1CCN(CC2(F)CN(c3ccc(S(=O)(=O)C4CN(C(=O)/C=C/CN(C)C)C4)cc3)C2)CC1 [Cpd. No. 11, methyl ((1S,2R)-2-((S)-2-(azetidin-1-yl)-1-(3,5-difluorophenyl)-1-(1-((1-(4-((1-((E)-4-(dimethylamino)but-2-enoyl)azetidin-3-yl)sulfonyl)phenyl)-3-fluoroazetidin-3-yl)methyl)piperidin-4-yl)ethyl)cyclopentyl)carbamate] |
| 2 | C=CC(=O)N1CC(S(=O)(=O)c2ccc(N3CC(CN4CCC([C@@](CN5CCC5)(c5cccc(F)c5)[C@H]5CCC[C@@H]5NC(=O)OC)CC4)C3)cc2)C1 [Cpd. No. 14, methyl ((1S,2R)-2-((S)-1-(1-((1-(4-((1-acryloylazetidin-3-yl)sulfonyl)phenyl)azetidin-3-yl)methyl)piperidin-4-yl)-2-(azetidin-1-yl)-1-(3-fluorophenyl)ethyl)cyclopentyl)carbamate] |
| 3 | C#CC(=O)N1CC(S(=O)(=O)c2ccc(N3CC(CN4CCC([C@@](CN5CCC5)(c5cccc(F)c5)[C@H]5CCC[C@@H]5NC(=O)OC)CC4)C3)cc2)C1 [Cpd. No. 15, methyl ((1S,2R)-2-((S)-2-(azetidin-1-yl)-1-(3-fluorophenyl)-1-(1-((1-(4-((1-propioloylazetidin-3-yl)sulfonyl)phenyl)azetidin-3-yl)methyl)piperidin-4-yl)ethyl)cyclopentyl)carbamate] |
| 3 | C=CC(=O)N1CC(S(=O)(=O)c2ccc(N3CC(F)(CN4CCC([C@@](CN5CCC5)(c5cccc(F)c5)[C@H]5CCC[C@@H]5NC(=O)OC)CC4)C3)cc2)C1 [Cpd. No. 16, methyl ((1S,2R)-2-((S)-1-(1-((1-(4-((1-acryloylazetidin-3-yl)sulfonyl)phenyl)-3-fluoroazetidin-3-yl)methyl)piperidin-4-yl)-2-(azetidin-1-yl)-1-(3-fluorophenyl)ethyl)cyclopentyl)carbamate] |
| 2 | C=C(CN1CCC(O)CC1)C(=O)N1CC(S(=O)(=O)c2ccc(N3CC(CN4CCC([C@@](CN5CCC5)(c5cccc(F)c5)[C@H]5CCC[C@@H]5NC(=O)OC)CC4)C3)cc2)C1 [Cpd. No. 23, methyl ((1S,2R)-2-((S)-2-(azetidin-1-yl)-1-(3-fluorophenyl)-1-(1-((1-(4-((1-(2-((4-hydroxypiperidin-1-yl)methyl)acryloyl)azetidin-3-yl)sulfonyl)phenyl)azetidin-3-yl)methyl)piperidin-4-yl)ethyl)cyclopentyl)carbamate] |
| 4 | C=C(CN1CCOCC1)C(=O)N1CC(S(=O)(=O)c2ccc(N3CC(CN4CCC([C@](CN5CCC5)(c5cccc(F)c5)[C@H]5CCC[C@@H]5NC(=O)OC)CC4)C3)cc2)C1 [Cpd. No. 27, methyl ((1S,2R)-2-((R)-2-(azetidin-1-yl)-1-(3-fluorophenyl)-1-(1-((1-(4-((1-(2-(morpholinomethyl)acryloyl)azetidin-3-yl)sulfonyl)phenyl)azetidin-3-yl)methyl)piperidin-4-yl)ethyl)cyclopentyl)carbamate] |
| 2 | C=C(CN1CCOCC1)C(=O)N1CC(S(=O)(=O)c2ccc(N3CC(CN4CCC([C@@](C#N)(c5cccc(F)c5)[C@H]5CCC[C@@H]5NC(=O)OC)CC4)C3)cc2)C1 [Cpd. No. 28, methyl ((1S,2R)-2-((S)-cyano(3-fluorophenyl)(1-((1-(4-((1-(2-(morpholinomethyl)acryloyl)azetidin-3-yl)sulfonyl)phenyl)azetidin-3-yl)methyl)piperidin-4-yl)methyl)cyclopentyl)carbamate] |
| 2 | C=C(CN1CCCCC1)C(=O)N1CC(S(=O)(=O)c2ccc(N3CC(CN4CCC([C@@](C#N)(c5cccc(F)c5)[C@H]5CCC[C@@H]5NC(=O)OC)CC4)C3)cc2)C1 [Cpd. No. 29, methyl ((1S,2R)-2-((S)-cyano(3-fluorophenyl)(1-((1-(4-((1-(2-(piperidin-1-ylmethyl)acryloyl)azetidin-3-yl)sulfonyl)phenyl)azetidin-3-yl)methyl)piperidin-4-yl)methyl)cyclopentyl)carbamate] |
| 5 | C=C(CN1CCOCC1)C(=O)N1CC(S(=O)(=O)c2cccc(N3CC(CN4CCC([C@@](CN5CCC5)(c5cccc(F)c5)[C@H]5CCC[C@@H]5NC(=O)OC)CC4)C3)c2)C1 [Cpd. No. 30, methyl ((1S,2R)-2-((S)-2-(azetidin-1-yl)-1-(3-fluorophenyl)-1-(1-((1-(3-((1-(2-(morpholinomethyl)acroyloyl)azetidin-3-yl)sulfonyl)phenyl)azetidin-3-yl)methyl)piperidin-4-yl)ethyl)cyclopentyl)carbamate] |
| 88 | COC(=O)N[C@H]1CCC[C@@H]1[C@@](CN1CCC1)(c1cccc(F)c1)C1CCN(CC2CN(c3ccc(S(=O)(=O)C4CN(C(=O)/C=C/CN5CCOCC5)C4)cc3)C2)CC1 [Cpd. No. 31, methyl ((1S,2R)-2-((R)-2-(azetidin-1-yl)-1-(3-fluorophenyl)-1-(1-((1-(4-((1-((E)-4-morpholinobut-2-enoyl)azetidin-3-yl)sulfonyl)phenyl)azetidin-3-yl)methyl)piperidin-4-yl)ethyl)cyclopentyl)carbamate] |
